This note sets out measurements from patent publication US9463338B2, “Derivatives of the sinapinic acid” (PHARMASYNTHESE, priority 2013, dated 2016).

Where “and” joins values, the source holds several entries; their conditions need not be identical. Equal values may be shown once. Marks after values point to notes of the source that are not given here.

Data set [1] can be described thus: ORAC (Oxygen Radical Absorbance Capacity) antioxidant activity. It counts as biochemical. The source says:
The ORAC (Oxygen Radical Absorbance Capacity) method, described in Cao, G., Alessio, H. M., Cutler, R. G. Free radical Biology & Medecine 1993, 14: 303-311<<Oxygen-Radical Absorbance Capacity assay for antioxydants>> and Benderitter, M., Vincent-Genid, L., Pouget, J. P., Voisin, P. Radiation Research 2003; 159 (4): 471-483 <<The cell membrane as a biosensor of oxydative stress induced by radiation exposure:multiparameter investigation>>, has been used for measuring the anti-oxidant capability of the compounds of the invention.
By convention, the ORAC antioxidant activity of any molecule is measured in comparison with a recognized reference which is an analog of vitamin E, the trolox (6-hydroxy-2,5,7,8-tetramethylchroman-2-carboxylic acid), the anti-oxidant capability of 1 μM (micro mole) of trolox corresponding to 1 ORAC unit.
The ORAC values are commonly reported in μmol TE/g (in micromole of Trolox Equivalent per gram of product to be tested).
Given these definitions, the trolox has an ORAC index of about 3995 units.
The ORAC values of the compounds 26 and 34 have been measured (average of 3 measurements).

For data set [2], the system named is normal human dermal fibroblasts. In words: Production of progerin in monolayer cultures of normal human dermal fibroblasts (ELISA). It counts as cell-based. The settings on record: for Progerin % DMSO / Progerin Average / Progerin, individual values / Progerin Difference (%): 96 hours; for Progerin Difference (%): vs DMSO. An excerpt: In order to study the influence of the compounds of the invention on the concentration of progerin in the cells, the assay method described by C. Verdy, J.-E. Branka and N. Mekideche in <<Quantitative assessment of lactate and progerine production in normal human cutaneous cells during normal ageing: effect of an alaria esculenta extract>>, Int. J. Cosmetic Science, 2011, 1-5, has been used.
(§1) The test system consists of monolayers of adult normal human dermal fibroblasts obtained by cultivating cells collected from a tummy tuck carried out on a person.
Insulin at 10 nM has been used as a reference product in this study. […]
(§2) The compound to be tested is solubilized in 1 mg/ml in DMSO, then diluted in the cells incubation medium, with a constant concentration of 0.1% (v/v) in DMSO.
Upon completion of the incubation period, on the one hand, the progerin has been quantified in the cellular lysates (obtained by ultrasonic action) through a sensitive and specific ELISA assay, and on the other hand, the proteins that are contained in the cellular lysates have been quantified by a spectrophotometric method (Bradford method—Bradford M. (1976) Anal. Biochem., 72, 248-254).
(§3) The statistical significance of the differences that have been observed between the <<Control>> and the <<reference product>> conditions, has been assessed through a Student test. The statistical significance of the differences that have been observed between the <<Check>> and the <<test products>> conditions, has been assessed through a one-way analysis of variance (One Way ANOVA) followed by a Holm-Sidak test (*:p<0.05).

The test system of data set [3] is normal human melanocytes. In words: Melanin production of normal human melanocytes (conditioned fibroblast media). It counts as cell-based. The settings on record: for Melanin/Proteins, individual values: conditioned medium 1/10th on melanocytes 72 hours; for Melanin/Proteins % DMSO / Melanin/Proteins Average: conditioned fibroblast medium, melanocytes 72 hours; for Melanin/Proteins Difference (%): vs DMSO 0.01%. An excerpt: These experiments allowed to show the capability of the compounds of the invention to modulate the melanin production of normal human melanocytes cultivated in D.K.K. fibroblast monolayers.
Monolayers of normal human dermal fibroblasts have been obtained by cultivating cells collected from a tummy tuck carried out on a person. For carrying out the tests, these cells have been cultivated until obtaining confluent monolayers. Monolayers of normal human melanocytes have been obtained by cultivating cells collected from a tummy tuck carried out on a person. For carrying out the tests, these cells have been cultivated until obtaining non-confluent monolayers. […]
Afterwards, the melanocytes have been incubated for 72 hours at 37° C. in a humid atmosphere with 5% of CO2, in the absence (culture medium alone) or in the presence of kojic acid at 250 μM or of conditioned fibroblast media (see above) diluted to 1/10th in the culture medium of the melanocytes.
The active ingredient has been solubilized in DMSO (Dimethyl Sulfoxide). Afterwards, the dilutions have been carried out in the cells incubation medium with a constant concentration of 0.01% (v/v) of DMSO.
Upon completion of the incubation period, the intracellular melanin content has been quantified in the melanocytic lysates by a spectrophotometric measurement at 405 nm.
Upon completion of the incubation period, the proteins contained in the cellular lysates have been quantified by a spectrophotometric method (Bradford method).
The results are given in the form of μg of intracellular melanin per mg of total proteins of the cellular layer (averages+/− the standard deviation, S.D.).
The statistical significance of the differences observed between the <<Control>> and the <<test product>> conditions, has been assessed through a one-way analysis of variance (One Way ANOVA) followed by a Holm-Sidak test (*:p<0.05).

The test system of data set [4] is explants of adipose tissues. As to the kind of experiment: Slimming effect: glycerol released in culture medium of adipose tissue explants. It counts as cell-based, human. As to the method:
The activity of the compounds of the invention on the adipocytes has been assessed. To do so, tests have been carried out on explants of adipose tissues that are kept alive according to the following experimental protocol. The products to be tested are introduced in the culture medium. After 9 days of treatment, the activity is assessed through an assay of the glycerol released in the culture medium. In order to be able to compare the potential activity of the molecules, caffeine (Sigma ref C-0750 batch 127F0396), which is known for its activity on the adipocytes (Studlar M. […] The explants are prepared from a tummy tuck ([…]-AB-40) carried out on a donor. 54 explants of tissues have been prepared and kept alive in a medium which is supplemented with penicillin/streptomycin antibiotics (Gibco ref 15140 batch 918578) at 37° C. and with 5% of CO2. The treatment has been carried out, on 3 explants, by incorporating 100 μl of the product (which is in turn at a 2% concentration in the adequate solvent, DMSO) in 2 ml of the culture medium on days J0, J2, J3, J5 and J7. Caffeine has been diluted to the desired concentration in the culture medium on these same days. The control explants have undergone no treatment. On J0, the 3 explants have been collected and frozen at -80° C. On J9, the remaining explants have been collected and preserved under the same conditions. The extraction of lipids from the culture medium has been carried out according to a tested procedure. The assay of the glycerol of the culture medium has been carried out using a glycerol assay kit (Megazyme, K-GROL) in the form of 96-well microplates and reading has been made at 340 nm with a Tecam Infinite M200 microplate reader associated to the Magellan software.

Data set [5] relates to normal human dermal fibroblasts. As to the kind of experiment: Production of type I pro-collagen in monolayer cultures of normal human dermal fibroblasts (E.I.A.). It counts as cell-based. To be noted: 48 hours; for Procollagen Difference (%): vs DMSO. As to the method:
as §1
The used reference activator is the Transforming Growth Factor β (TGF-β) at 1 ng/ml. […]
as §2
Upon completion of the incubation period, the type I pro-collagen contained in the fibroblasts incubation media has been quantified using a sensitive and specific E.I.A. kit.
Upon completion of the incubation period, the proteins contained in the cellular lysates have been quantified by a spectrophotometric method (Bradford method—Bradford M. (1976) Anal. Biochem., 72, 248-254).
as §3
The results are given in the form of μg of type I pro-collagen per mg of protein (average+/− the standard deviation, S.D.) and are reported in the following Table 5.

In the case of `COc1cc(/C=C/C(=O)Oc2cc(C)ccc2C(C)C)cc(OC)c1OC(C)=O` [Compound 8, 4-acetoxy-3,5-dimethoxy cinnamate of 2-isopropyl-5-methyl phenyl], the melting point – broadly, the temperature, or range, at which the solid turns liquid – stood at 143 °C.
Take `COc1cc(/C=C/C(=O)OCCc2ccc(OC(C)=O)cc2)cc(OC)c1OC(C)=O` [Compound 1, 4-acetoxy-3,5-dimethoxy cinnamate of 2-(4-acetoxyphenyl)-ethyl]: the melting point was found to be 132 °C.
For `COc1cc(/C=C/C(=O)NCC(O)c2ccc(O)cc2)cc(OC)c1OC(C)=O` (stereo not drawn) [Compound 39], in data set [1] (average of 3 measurements), the “ORAC Antioxidant activity” value is 20968 ± 992 μmol TE/g.
For `Cc1c(C)c2c(c(C)c1O)CCC(C)(C(=O)O)O2` (stereo not drawn) [Trolox, 6-hydroxy-2,5,7,8-tetramethylchroman-2-carboxylic acid, reference compound], the ORAC index result in data set [1] (reference, given the definitions) is on record as “about 3995 units”. Further, the “ORAC Antioxidant activity” value in data set [1] (reference, value follows from the definition of the ORAC unit) is reported as 3995 μmol TE/g.
Take `COc1cc(COC(=O)/C=C/c2cc(OC)c(OC(C)=O)c(OC)c2)cc(OC)c1OC` [Compound 5]: in data set [2] (10 ng/ml), the “Progerin % DMSO” value is recorded as 27.6%; the “Progerin Average” value is reported as 306.4* ng/mg of protein; the “Progerin, individual values” was 284.0 ng/mg of protein and 243.7 ng/mg of protein and 391.4 ng/mg of protein; the “Progerin Difference (%)” value is given as −72.4%. For the same compound, in data set [2] (100 ng/ml), the “Progerin % DMSO” value is 29.1%; the “Progerin Average” value is 322.9* ng/mg of protein; the “Progerin, individual values” is 206.0 ng/mg of protein and 364.1 ng/mg of protein and 398.6 ng/mg of protein; the “Progerin Difference (%)” value was −70.9%. Besides, in data set [2] (500 ng/ml), the “Progerin % DMSO” value is on record as 77.9%; the “Progerin Average” value is 865.0 ng/mg of protein; the “Progerin, individual values” was 916.2 ng/mg of protein and 1021.7 ng/mg of protein and 657.0 ng/mg of protein; the “Progerin Difference (%)” value is on record as −22.1%. The “neo synthesis of progerin” value in data set [2] (under the retained experimental conditions) was “significantly decrease”. Moreover, the “synthesis of melanin in the melanocytes” value in data set [3] is “significantly decrease”. Also, in data set [3] (10 ng/ml on fibroblasts 48 hours), the “Melanin/Proteins, individual values” is 14.2 µg/mg and 11.7 µg/mg and 13.7 µg/mg. Besides, in data set [3] (10 ng/ml), the “Melanin/Proteins % DMSO” value was 83.0%, the “Melanin/Proteins Average” value is 14.3* μg/mg and the “Melanin/Proteins Difference (%)” value is −17.0%. For the same compound, the “Melanin/Proteins, individual values” in data set [3] (50 ng/ml on fibroblasts 48 hours) is 14.3 μg/mg and 14.7 μg/mg (2×). In data set [3] (50 ng/ml), the “Melanin/Proteins % DMSO” value was determined as 83.6%, the “Melanin/Proteins Average” value is 14.4* μg/mg and the “Melanin/Proteins Difference (%)” value was −16.4%. Also, the “Melanin/Proteins, individual values” in data set [3] (100 ng/ml on fibroblasts 48 hours) is 15.8 µg/mg and 16.7 µg/mg and 16.0 µg/mg. Further, in data set [3] (100 ng/ml), the “Melanin/Proteins % DMSO” value stood at 93.7%, the “Melanin/Proteins Average” value came out at 16.2 µg/mg and the “Melanin/Proteins Difference (%)” value was −6.3%. In addition, in data set [4] (after 9 days of treatment), the “Glycerol % in comparison with caffeine” value was found to be 82% and the “slimming activity in comparison with caffeine” value is “enhanced slimming activity”. The “Glycerol Average” value in data set [4] (glycerol released in culture medium after 9 days, 100 μl of 2% product in DMSO in 2 ml medium on J0, J2, J3, J5, J7, 3 explants) came out at 0.083 mg/mL. Besides, in data set [5] (10 ng/ml), the “Procollagen % DMSO” value is given as 75.7%; the “Procollagen Average” value is 39.7* pg/mg of protein; the “Procollagen, individual values” is 45.3 pg/mg of protein and 37.0 pg/mg of protein and 36.8 pg/mg of protein; the “Procollagen Difference (%)” value was −24.3%. In data set [5] (100 ng/ml), the “Procollagen % DMSO” value came to 96.3%; the “Procollagen Average” value was 50.5 pg/mg of protein; the “Procollagen, individual values” was 53.0 pg/mg of protein and 52.3 pg/mg of protein and 46.3 pg/mg of protein; the “Procollagen Difference (%)” value is −3.7%. Also, in data set [5] (500 ng/ml), the “Procollagen % DMSO” value is 126.9%; the “Procollagen Average” value is given as 66.6* pg/mg of protein; the “Procollagen, individual values” was 66.1 pg/mg of protein and 62.3 pg/mg of protein and 71.4 pg/mg of protein; the “Procollagen Difference (%)” value is 26.9%.
`COc1ccc2[nH]cc(CCNC(=O)/C=C/c3cc(OC)c(OC(C)=O)c(OC)c3)c2c1` [Compound 31, 4-acetoxy-3,5-dimethoxy-N-(5-methoxytryptamyl)-cinnamamide]: the melting point was 148 °C. Moreover, in data set [1] (average of 3 measurements), the “ORAC Antioxidant activity” value is 4874 ± 216 μmol TE/g.
Regarding `COc1cc(/C=C/C(=O)Nc2ccccc2)cc(OC)c1OC(C)=O` [Compound 19, 4-acetoxy-3,5-dimethoxy-N-(phenyl)-cinnamamide], the melting point worked out at 100 °C.
In turn, `CCCCCCCCCCCCCCCCOC(=O)/C=C/c1cc(OC)c(OC(C)=O)c(OC)c1` [Compound 4, 4-acetoxy-3,5-dimethoxy cinnamate of n-hexadecyl] showed a melting point of 82 °C.
In the case of `COc1cc(/C=C/C(=O)NC2CC2)cc(OC)c1OC(C)=O` [Compound 34], the “antioxidant activity in comparison with trolox” value in data set [1] (ORAC) was found to be 5 times.
